{"source": "paper PMC4063695", "about": "“Design of Embedded-Hybrid Antimicrobial Peptides with Enhanced Cell Selectivity and Anti-Biofilm Activity” (PLoS ONE, 2014)", "key": {"[1]": {"test_system": "human red blood cells (hRBC)", "test": "Hemolytic activity", "assay_type": "cell-based", "method": "The amount of released hemoglobin by the lysis of erythrocytes was measured for hemolytic activity of peptides. Human erythrocytes were obtained from a healthy donor with written informed consent. The experimental protocol was reviewed and approved by the ethics committee of the Northeast Agricultural University Hospital. The measurement was based on a previously described method. The fresh hRBCs were washed three times by centrifugation (1000 g, 5 min, 4°C) in PBS (pH 7.4), and then resuspended in PBS to obtain the erythrocyte with a dilution of approximately 1% (v/v). Then, 50 µL of hRBCs solution was incubated with 50 µL of different concentrations of the peptides dissolved in PBS for 1 h at 37°C, before centrifugation (1000 g, 5 min, 4°C) again. The absorbance of the supernatants was measured at optical density (OD) 492 nm. […] The control samples for 0% and 100% hemolysis consisted of hRBCs in PBS (Ablank) only and in 0.1% Triton X-100 (Atriton), respectively. The percentage of hemolysis was calculated according to the following equation: [drawing 3]"}, "[2]": {"test_system": "P. aeruginosa variant 1", "settings": "P. aeruginosa variant 1, obtained by step-wise culture with ciprofloxacin hydrochloride; MHB, 37°C, 18-24 h", "text": "(§1) E. coli ATCC25922, P. aeruginosa ATCC27853, S. aureus ATCC29213, S. epidermidis ATCC12228, S. faecalis ATCC29212 and B. subtilis CMCC63501 were obtained from the College of Veterinary Medicine, Northeast Agricultural University (Harbin, China), E. coli K88, E. coli CVCC1515 and P. aeruginosa ATCC15442 were bestowed by Prof. J.H. Wang (Gene Engineering Laboratory, Feed Research Institute, Chinese Academy of Agricultural Sciences Beijing, China) and E. coli UB1005 was kindly provided by Prof. Q.S. Qi (State Key Laboratory of Microbial Technology, Shandong University, China). […] Briefly, 50 µl of approximate 0.5–1 × 10^6 colony forming units (CFU)/ml of cells were diluted in Mueller-Hinton broth and distributed to 96-well plate, 50 µl of twofold peptides were added and the plates was incubated at 37°C for 18–24 h. The MIC values were calculated as the lowest peptide concentration that prevented visible turbidity and negative control of the pure broth without microbes. The tests were performed at least three times in duplicate."}, "[3]": {"test_system": "P. aeruginosa variant 2", "settings": "P. aeruginosa variant 2, obtained by step-wise culture with gentamicin; MHB, 37°C, 18-24 h", "text": "as §1"}, "[4]": {"test_system": "E. coli CVCC1515", "text": "as §1"}, "[5]": {"test_system": "E. coli K88", "settings": "MHB, 37°C, 18-24 h, at least three times in duplicate", "text": "as §1"}, "[6]": {"test_system": "S.faecalis ATCC29212", "text": "as §1"}, "[7]": {"test_system": "S.aureus ATCC29213", "text": "as §1"}, "[8]": {"test_system": "P. aeruginosa ATCC27853", "text": "as §1"}, "[9]": {"test_system": "E. coli ATCC25922", "text": "as §1"}, "[10]": {"test_system": "B. subtilis CMCC63501", "text": "as §1"}, "[11]": {"test_system": "E. coli UB1005", "text": "as §1"}, "[12]": {"test_system": "P. aeruginosa ATCC15442", "text": "as §1"}, "[13]": {"test_system": "S. pullorum C79-13", "text": "as §1"}, "[14]": {"test_system": "S.epidermidis ATCC12228", "text": "as §1"}, "[15]": {"test_system": "S. typhimurium ATCC14028", "text": "as §1"}, "[16]": {"test_system": "Gram-negative and Gram-positive strains", "test": "MIC over all tested strains (range, geometric mean)", "assay_type": "cell-based", "set-up": "GM (geometric mean of MIC values from all microbial strains): unit not given here", "settings": "all strains of Table 2", "text": "as §1"}, "[17]": {"test": "Circular dichroism, secondary structure", "assay_type": "physicochemical", "settings": "30 mM SDS micelles; 150 µM peptide", "method": "The CD spectra were measured with a CD spectropolarimeter (Jasco, J-820, Tokyo, Japan) at 25°C, using a 0.1 cm path length rectangular quartz cell. The spectra were recorded at between 190 and 250 nm at 10 nm/min scanning speed. At least three scans were conducted for each peptide sample.\nThe acquired CD spectra were converted to the mean residue ellipticity through the following equation: [drawing 1]\nwhere θM is the mean residue ellipticity [deg.cm2.dmol-1], θobs is the observed ellipticity corrected for the buffer at a given wavelength [mdeg], c is the peptide concentration [mM], l is the path length [mm], and n is the number of amino acids.\nThe percentage of α-helical structure was calculated as followings: [drawing 2]\nwhere [θ]222 is the experimentally observed mean residue ellipticity at 222 nm, and values for [θ]^0 and [θ]^100 which correspond to 0 and 100% a-helix content at 222 nm, are estimated to be −2000 and −32000, respectively, [29]."}}, "note": "Read-outs that look alike come from different tables or passages of the source. No end group written: not given here.", "data": [{"substance": "RFRRLRKKTRKRLKKI-NH2 [RI16]", "values": [{"measurement": "MHC", "setting": "[1]; minimum concentration that caused 5% hemolysis of hRBC (footnote), 1% hRBC in PBS pH 7.4, 1 h, 37°C, OD 492 nm", "result": ">256", "unit": "µM"}, {"measurement": "MIC", "setting": "[2]", "result": ">256", "unit": "µM"}, {"measurement": "MIC", "setting": "[3]", "result": ">256", "unit": "µM"}, {"measurement": "MIC", "setting": "[4]; E. coli CVCC1515, MHB, 37°C, 18-24 h, at least three times in duplicate", "result": 128, "unit": "µM"}, {"measurement": "MIC", "setting": "[5]", "result": ">256", "unit": "µM"}, {"measurement": "MIC", "setting": "[6]; S.faecalis ATCC29212, MHB, 37°C, 18-24 h, at least three times in duplicate", "result": 128, "unit": "µM"}, {"measurement": "MIC", "setting": "[7]; S.aureus ATCC29213, MHB, 37°C, 18-24 h, at least three times in duplicate", "result": 128, "unit": "µM"}, {"measurement": "MIC", "setting": "[8]; P. aeruginosa ATCC27853, MHB, 37°C, 18-24 h, at least three times in duplicate", "result": 128, "unit": "µM"}, {"measurement": "MIC", "setting": "[9]; E. coli ATCC25922, MHB, 37°C, 18-24 h, at least three times in duplicate", "result": 128, "unit": "µM"}, {"measurement": "MIC", "setting": "[10]; B. subtilis CMCC63501, MHB, 37°C, 18-24 h, at least three times in duplicate", "result": 64, "unit": "µM"}, {"measurement": "MIC", "setting": "[11]; E. coli UB1005, MHB, 37°C, 18-24 h, at least three times in duplicate", "result": 128, "unit": "µM"}, {"measurement": "MIC", "setting": "[12]; P. aeruginosa ATCC15442, MHB, 37°C, 18-24 h, at least three times in duplicate", "result": ">256", "unit": "µM"}, {"measurement": "MIC", "setting": "[13]; S. pullorum C79-13, MHB, 37°C, 18-24 h, at least three times in duplicate", "result": 64, "unit": "µM"}, {"measurement": "MIC", "setting": "[14]; S.epidermidis ATCC12228, MHB, 37°C, 18-24 h, at least three times in duplicate", "result": 32, "unit": "µM"}, {"measurement": "MIC", "setting": "[15]; S. typhimurium ATCC14028, MHB, 37°C, 18-24 h, at least three times in duplicate", "result": 64, "unit": "µM"}]}, {"substance": "FRIRVRV-NH2 [FV7, reference compound]", "values": [{"measurement": "MHC", "setting": "[1]; pH 7.4", "result": ">256", "unit": "µM"}, {"measurement": "GM (geometric mean of MIC values from all microbial strains)", "setting": "[16]", "result": 29}, {"measurement": "secondary structure (in words)", "setting": "[17]", "result": "β-sheet"}, {"measurement": "MIC", "setting": "[2]", "result": 8, "unit": "µM"}, {"measurement": "MIC", "setting": "[3]", "result": 16, "unit": "µM"}, {"measurement": "MIC", "setting": "[4]; CVCC1515", "result": 32, "unit": "µM"}, {"measurement": "MIC", "setting": "[5]", "result": 16, "unit": "µM"}, {"measurement": "MIC", "setting": "[6]; ATCC29212", "result": 32, "unit": "µM"}, {"measurement": "MIC", "setting": "[7]; ATCC29213", "result": 64, "unit": "µM"}, {"measurement": "MIC", "setting": "[8]; ATCC27853", "result": 16, "unit": "µM"}, {"measurement": "MIC", "setting": "[9]; ATCC25922", "result": 16, "unit": "µM"}, {"measurement": "MIC", "setting": "[10]; CMCC63501", "result": 16, "unit": "µM"}, {"measurement": "MIC", "setting": "[11]; UB1005", "result": 32, "unit": "µM"}, {"measurement": "MIC", "setting": "[12]; ATCC15442", "result": 16, "unit": "µM"}, {"measurement": "MIC", "setting": "[13]; C79-13", "result": 128, "unit": "µM"}, {"measurement": "MIC", "setting": "[14]; ATCC12228", "result": 32, "unit": "µM"}, {"measurement": "MIC", "setting": "[15]; ATCC14028", "result": 16, "unit": "µM"}]}]}
